Among the data in ChEMBL document CHEMBL1153382 (J Med Chem, 2009) are Ratio EC50 and Emax values, retold here.

The target in the first experiment is Serotonin 2 receptors; 5-HT2a & 5-HT2c (Homo sapiens) (UniProt P28223+P28335). The experiment is described as follows: Selectivity ratio of EC50 for human 5HT2A receptor to EC50 for human 5HT2C receptor.
Chain of Serotonin 2 receptors; 5-HT2a & 5-HT2c (Homo sapiens) (P28223 whole entry, looked up, one chain of several): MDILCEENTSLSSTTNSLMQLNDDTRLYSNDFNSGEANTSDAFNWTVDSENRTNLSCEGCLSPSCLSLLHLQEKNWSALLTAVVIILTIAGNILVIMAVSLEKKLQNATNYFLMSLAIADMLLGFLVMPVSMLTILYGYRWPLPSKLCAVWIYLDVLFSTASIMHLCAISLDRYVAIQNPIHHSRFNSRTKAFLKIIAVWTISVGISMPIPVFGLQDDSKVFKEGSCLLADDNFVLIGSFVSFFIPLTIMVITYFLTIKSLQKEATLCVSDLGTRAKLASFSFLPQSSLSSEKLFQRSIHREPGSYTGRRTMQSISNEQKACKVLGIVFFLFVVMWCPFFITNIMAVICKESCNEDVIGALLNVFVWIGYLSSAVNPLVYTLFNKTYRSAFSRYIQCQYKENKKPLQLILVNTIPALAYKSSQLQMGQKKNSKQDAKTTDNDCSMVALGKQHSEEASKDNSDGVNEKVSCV
Take `COc1cccc([C@H]2C[C@@H]2CN)c1` (relative stereo): the Ratio EC50 turned out to be 39.

As for `COc1ccccc1[C@H]1C[C@@H]1CN` (relative stereo), the Ratio EC50 was determined as 84.

In the case of `Cc1cc([C@H]2C[C@@H]2CN)ccc1F` (relative stereo), the Ratio EC50 came to 39.

Consider `Cc1ccc(Cl)c([C@H]2C[C@@H]2CN)c1F` (relative stereo), for which the Ratio EC50 is 26.

`Cc1ccc([C@H]2C[C@@H]2CN)c(Br)c1` (relative stereo): the Ratio EC50 turned out to be 4.8.

For the molecule `Cc1ccc([C@H]2C[C@@H]2CN)cc1` (relative stereo), the Ratio EC50 worked out at 14.

Consider `Cc1ccc([C@H]2C[C@@H]2CN)cc1C` (relative stereo), for which the Ratio EC50 amounted to 68.

With `Cc1cccc(Cl)c1[C@H]1C[C@@H]1CN` (relative stereo), the Ratio EC50 turned out to be 207.

As to `Cc1cccc([C@H]2C[C@@H]2CN)c1C` (relative stereo), the Ratio EC50 stood at 52.

With `Cc1ccccc1[C@H]1C[C@@H]1CN` (relative stereo), the Ratio EC50 came to 71.

In the case of `NC[C@@H]1C[C@H]1c1ccccc1` (relative stereo), the Ratio EC50 is 106.

For `NC[C@H]1C[C@@H]1c1c(F)cccc1F` (relative stereo), the Ratio EC50 was more than 11.

On to `NC[C@H]1C[C@@H]1c1ccc(Br)cc1` (relative stereo), for which the Ratio EC50 is more than 7.

With `NC[C@H]1C[C@@H]1c1ccc(Cl)cc1` (relative stereo), the Ratio EC50 was found to be 59.

Take `NC[C@H]1C[C@@H]1c1ccc(Cl)cc1Cl` (relative stereo): the Ratio EC50 is 2.9.

In the case of `NC[C@H]1C[C@@H]1c1ccc(Cl)cc1F` (relative stereo), the Ratio EC50 stood at 6.1.

With `NC[C@H]1C[C@@H]1c1ccc(F)c(F)c1` (relative stereo), the Ratio EC50 was 64.

In a further experiment the target is T1, 5-hydroxytryptamine receptor 2C (Homo sapiens) (UniProt P28335).
T1 sequence (whole entry): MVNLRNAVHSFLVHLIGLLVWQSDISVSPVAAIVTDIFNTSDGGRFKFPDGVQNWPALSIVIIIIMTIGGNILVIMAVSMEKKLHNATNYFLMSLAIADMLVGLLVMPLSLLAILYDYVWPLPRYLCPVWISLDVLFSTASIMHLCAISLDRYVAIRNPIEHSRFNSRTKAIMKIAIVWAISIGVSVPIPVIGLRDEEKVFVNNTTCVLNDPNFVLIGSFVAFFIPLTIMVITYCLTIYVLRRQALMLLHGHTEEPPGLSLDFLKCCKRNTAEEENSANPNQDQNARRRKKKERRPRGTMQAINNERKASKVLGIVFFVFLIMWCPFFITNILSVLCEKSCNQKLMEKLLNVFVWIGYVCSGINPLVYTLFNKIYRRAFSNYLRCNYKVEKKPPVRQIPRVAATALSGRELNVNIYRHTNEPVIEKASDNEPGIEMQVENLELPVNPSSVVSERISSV
The experiment is described as follows: Agonist activity at human 5HT2C receptor expressed in HEK293 cells at 10 uM assessed as calcium flux by FLIPR assay relative to serotonin. The format is functional, cell-based.
`COc1cccc([C@H]2C[C@@H]2CN)c1` (relative stereo): the Emax was 97%.

Regarding `COc1ccccc1[C@H]1C[C@@H]1CN` (relative stereo), the Emax amounted to 93%.

For the molecule `Cc1cc([C@H]2C[C@@H]2CN)ccc1F` (relative stereo), the Emax came to 91%.

Turning to `Cc1ccc(Cl)c([C@H]2C[C@@H]2CN)c1F` (relative stereo), the Emax was found to be 117%.

Turning to `Cc1ccc([C@H]2C[C@@H]2CN)c(Br)c1` (relative stereo), the Emax was determined as 84%.

Take `Cc1ccc([C@H]2C[C@@H]2CN)cc1` (relative stereo): the Emax amounted to 69%.

Regarding `Cc1ccc([C@H]2C[C@@H]2CN)cc1C` (relative stereo), the maximal effect (Emax) turned out to be 97%.

With `Cc1cccc(Cl)c1[C@H]1C[C@@H]1CN` (relative stereo), the Emax is 97%.

Regarding `Cc1cccc([C@H]2C[C@@H]2CN)c1C` (relative stereo), the Emax was 107%.

In the case of `Cc1ccccc1[C@H]1C[C@@H]1CN` (relative stereo), the Emax came out at 99%.

As for `NC[C@@H]1C[C@H]1c1ccccc1` (relative stereo), the Emax came to 96%.

Take `NC[C@H]1C[C@@H]1c1c(F)cccc1F` (relative stereo): the Emax was 85%.

For `NC[C@H]1C[C@@H]1c1ccc(Br)cc1` (relative stereo), the Emax was 87%.

For the molecule `NC[C@H]1C[C@@H]1c1ccc(Cl)cc1` (relative stereo), the Emax was 106%.

As to `NC[C@H]1C[C@@H]1c1ccc(Cl)cc1Cl` (relative stereo), the Emax is 98%.

Regarding `NC[C@H]1C[C@@H]1c1ccc(Cl)cc1F` (relative stereo), the Emax was determined as 94%.

For the molecule `NC[C@H]1C[C@@H]1c1ccc(F)c(F)c1` (relative stereo), the Emax is 103%.

The species entered for a further experiment is Homo sapiens. The experiment is described as follows: Selectivity ratio of EC50 for human 5HT2B receptor to EC50 for human 5HT2C receptor.
For `COc1cccc([C@H]2C[C@@H]2CN)c1` (relative stereo), the Ratio EC50 was 4.8.

Take `COc1ccccc1[C@H]1C[C@@H]1CN` (relative stereo): the Ratio EC50 was 7.7.

With `Cc1cc([C@H]2C[C@@H]2CN)ccc1F` (relative stereo), the Ratio EC50 was 0.83.

Take `Cc1ccc(Cl)c([C@H]2C[C@@H]2CN)c1F` (relative stereo): the Ratio EC50 turned out to be 9.2.

Take `Cc1ccc([C@H]2C[C@@H]2CN)c(Br)c1` (relative stereo): the Ratio EC50 came to 1.2.

Turning to `Cc1ccc([C@H]2C[C@@H]2CN)cc1` (relative stereo), the Ratio EC50 came out at 0.28.

Turning to `Cc1ccc([C@H]2C[C@@H]2CN)cc1C` (relative stereo), the Ratio EC50 came out at 0.33.

Take `Cc1cccc(Cl)c1[C@H]1C[C@@H]1CN` (relative stereo): the Ratio EC50 came to 2.

With `Cc1cccc([C@H]2C[C@@H]2CN)c1C` (relative stereo), the Ratio EC50 was determined as 1.2.

For `Cc1ccccc1[C@H]1C[C@@H]1CN` (relative stereo), the Ratio EC50 was 2.3.

For the molecule `NC[C@@H]1C[C@H]1c1ccccc1` (relative stereo), the Ratio EC50 came out at 6.

For the molecule `NC[C@H]1C[C@@H]1c1c(F)cccc1F` (relative stereo), the Ratio EC50 was determined as 39.

In the case of `NC[C@H]1C[C@@H]1c1ccc(Br)cc1` (relative stereo), the Ratio EC50 turned out to be 20.

As for `NC[C@H]1C[C@@H]1c1ccc(Cl)cc1` (relative stereo), the Ratio EC50 came to 5.3.

For `NC[C@H]1C[C@@H]1c1ccc(Cl)cc1Cl` (relative stereo), the Ratio EC50 came to 4.7.

Regarding `NC[C@H]1C[C@@H]1c1ccc(Cl)cc1F` (relative stereo), the Ratio EC50 was determined as 3.6.

In the case of `NC[C@H]1C[C@@H]1c1ccc(F)c(F)c1` (relative stereo), the Ratio EC50 was found to be 3.2.

The target in the next experiment is 5-hydroxytryptamine receptor 2B (Homo sapiens, UniProt P41595). The experiment is described as follows: Agonist activity at human 5HT2B receptor expressed in HEK293 cells at 10 uM assessed as calcium flux by FLIPR assay relative to serotonin. The format is functional, cell-based. Background: A change in cytosolic calcium serves as a functional read-out for many receptors and channels.
Chain of 5-hydroxytryptamine receptor 2B (P41595 whole entry): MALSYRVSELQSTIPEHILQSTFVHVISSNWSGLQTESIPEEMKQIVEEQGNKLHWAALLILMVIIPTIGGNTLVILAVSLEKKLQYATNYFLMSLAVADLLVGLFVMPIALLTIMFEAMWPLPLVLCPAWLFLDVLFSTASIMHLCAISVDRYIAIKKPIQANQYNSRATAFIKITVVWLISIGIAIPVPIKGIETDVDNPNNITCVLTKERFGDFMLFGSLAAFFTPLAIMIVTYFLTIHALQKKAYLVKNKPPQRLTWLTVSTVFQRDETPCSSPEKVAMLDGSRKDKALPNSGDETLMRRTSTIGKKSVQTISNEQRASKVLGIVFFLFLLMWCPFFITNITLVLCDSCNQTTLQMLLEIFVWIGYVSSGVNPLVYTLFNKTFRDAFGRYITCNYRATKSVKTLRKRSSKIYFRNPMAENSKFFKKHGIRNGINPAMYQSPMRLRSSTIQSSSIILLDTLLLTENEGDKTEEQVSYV
On to `COc1cccc([C@H]2C[C@@H]2CN)c1` (relative stereo), for which the Emax worked out at 96%.

For `COc1ccccc1[C@H]1C[C@@H]1CN` (relative stereo), the maximal response (Emax) was 83%.

For `Cc1cc([C@H]2C[C@@H]2CN)ccc1F` (relative stereo), the Emax is 83%.

As for `Cc1ccc(Cl)c([C@H]2C[C@@H]2CN)c1F` (relative stereo), the Emax is 74%.

For the molecule `Cc1ccc([C@H]2C[C@@H]2CN)c(Br)c1` (relative stereo), the Emax came to 68%.

In the case of `Cc1ccc([C@H]2C[C@@H]2CN)cc1` (relative stereo), the Emax came out at 79%.

On to `Cc1ccc([C@H]2C[C@@H]2CN)cc1C` (relative stereo), for which the Emax amounted to 78%.

On to `Cc1cccc(Cl)c1[C@H]1C[C@@H]1CN` (relative stereo), for which the Emax turned out to be 90%.

For the molecule `Cc1cccc([C@H]2C[C@@H]2CN)c1C` (relative stereo), the Emax turned out to be 90%.

Regarding `Cc1ccccc1[C@H]1C[C@@H]1CN` (relative stereo), the Emax was 86%.

`NC[C@@H]1C[C@H]1c1ccccc1` (relative stereo): the Emax was determined as 93%.

As for `NC[C@H]1C[C@@H]1c1c(F)cccc1F` (relative stereo), the maximum response (Emax) was 58%.

With `NC[C@H]1C[C@@H]1c1ccc(Br)cc1` (relative stereo), the Emax came out at 51%.

Regarding `NC[C@H]1C[C@@H]1c1ccc(Cl)cc1` (relative stereo), the Emax was determined as 80%.

As to `NC[C@H]1C[C@@H]1c1ccc(Cl)cc1Cl` (relative stereo), the Emax was 89%.

As for `NC[C@H]1C[C@@H]1c1ccc(Cl)cc1F` (relative stereo), the Emax came to 86%.

As to `NC[C@H]1C[C@@H]1c1ccc(F)c(F)c1` (relative stereo), the maximal effect (Emax) stood at 96%.

The next experiment deals with 5-hydroxytryptamine receptor 2A (Homo sapiens, UniProt P28223). The experiment is described as follows: Agonist activity at human 5HT2A receptor expressed in HEK293 cells at 10 uM assessed as calcium flux by FLIPR assay relative to serotonin. The format is functional, cell-based.
Chain of 5-hydroxytryptamine receptor 2A (P28223 whole entry): as the sequence (P28223 whole entry, looked up, one chain of several) above
With `COc1cccc([C@H]2C[C@@H]2CN)c1` (relative stereo), the maximal effect (Emax) worked out at 90%.

`COc1ccccc1[C@H]1C[C@@H]1CN` (relative stereo): the Emax is 61%.

For `Cc1cc([C@H]2C[C@@H]2CN)ccc1F` (relative stereo), the Emax was 73%.

`Cc1ccc(Cl)c([C@H]2C[C@@H]2CN)c1F` (relative stereo): the Emax turned out to be 65%.

Turning to `Cc1ccc([C@H]2C[C@@H]2CN)c(Br)c1` (relative stereo), the Emax stood at 62%.

Consider `Cc1ccc([C@H]2C[C@@H]2CN)cc1` (relative stereo), for which the Emax is 18%.

Turning to `Cc1ccc([C@H]2C[C@@H]2CN)cc1C` (relative stereo), the Emax is 40%.

Consider `Cc1cccc(Cl)c1[C@H]1C[C@@H]1CN` (relative stereo), for which the Emax amounted to 56%.

As to `Cc1cccc([C@H]2C[C@@H]2CN)c1C` (relative stereo), the Emax stood at 59%.

Turning to `Cc1ccccc1[C@H]1C[C@@H]1CN` (relative stereo), the Emax was found to be 69%.

Turning to `NC[C@@H]1C[C@H]1c1ccccc1` (relative stereo), the Emax was 74%.

`NC[C@H]1C[C@@H]1c1c(F)cccc1F` (relative stereo): the Emax was 38%.

`NC[C@H]1C[C@@H]1c1ccc(Br)cc1` (relative stereo): the Emax stood at 26%.

For `NC[C@H]1C[C@@H]1c1ccc(Cl)cc1` (relative stereo), the Emax is 64%.

For the molecule `NC[C@H]1C[C@@H]1c1ccc(Cl)cc1Cl` (relative stereo), the Emax amounted to 88%.

Take `NC[C@H]1C[C@@H]1c1ccc(Cl)cc1F` (relative stereo): the Emax turned out to be 83%.

As to `NC[C@H]1C[C@@H]1c1ccc(F)c(F)c1` (relative stereo), the Emax worked out at 96%.

One may read the Emax as the maximal effect, on the per cent scale that the assay sets.
